The test system of assay [1] is BRCA1 mRNA expression in MDA-MB-231 cells. The experiment in a line: qRT-PCR assay: inhibition of BRCA1 mRNA expression in MDA-MB-231 cells. The following applies: Homo sapiens, 24 h exposure, BRCA1 normalised to GAPDH, median, read-out: RTqPCR-MDA-MB-231, IC50 [mol/l], BRCA1 (median). The class given is cell-based. Here is the method:
3. qRT-PCR Assay: BRCA1, ATR, MCL1 in MDA-MB-231, CAL-120
Tissue cultured human MDA-MB-231 human breast cancer cells were plated in 500 microL per well at 200,000 cells/well in a 24 well microtiter plate. After 24 h, the cells were exposed continuously for 24 h to test substances (substances were added with Tecan HP D300 Dispenser). RNA was prepared using Qiagen RNeasy MiniKit (#74106), RNA was quantified using a NanoDrop Equipment, and 600 nano grams of RNA was converted to cDNA using a SuperScript VILO kit (Thermofisher #11755050) followed by qPCR amplification. BRCA1 and ATR gene expression was measured by RT-qPCR and normalised to GAPDH housekeeping gene expression. qPCR primer sets have been purchased from Thermo Fisher Scientific/Applied Biosystems: BRCA1, #Hs 01556193; ATR. #Hs 00992123: GAPDH. #Hs 03929097.
On the technique in general: In qPCR the cycle at which signal appears reflects the starting amount.

The subject of assay [2] is MDA-MB-231, human breast cancer cells. The assay is described as follows: Proliferation assay MDA-MB-231 (crystal violet). The class given is cell-based. To be noted: 96 h, MDA-MB-231 parental cells, 4 days, median, read-out: Prolif-MDA MB-231, IC50 - [mol/l] (median). Here is the method:
(§1) Human tumour cells were originally obtained from the American Type Culture Collection (ATCC), or from the Deutsche Sammlung von Mikroorganismen und Zellkulturen (DSMZ, German Collection of Microorganisms and Cell Cultures). Cultivated tumour cells (CAL-120, human breast adenocarcinoma cells, DSMZ ACC-459; MDA-MB-231, human breast cancer cells, ATCC HTB-26) were plated at a density of 4,000 cells/well in a 96-well multitier plate in 200 microL of their respective growth medium supplemented 10% fetal calf serum. After 24 hours, the cells of one plate (zero-point plate) were stained with crystal violet (see below), while the medium of the other plates was supplemented with the test substances in various concentrations (0 micromol/L, as well as in the range of 0.01-10 micromol/L; the final concentration of the solvent dimethyl sulfoxide was adjusted to 0.1%) using a Tecan HP D300 Digital Dispenser. The cells were incubated for 4 days in the presence of test substances. Cell proliferation was determined by staining the cells with crystal violet: the cells were fixed by adding 20 microL/measuring point of an 11% glutaric aldehyde solution for 15 minutes at room temperature. After three washing cycles of the fixed cells with water, the plates were dried at room temperature. The cells were stained by adding 100 microL/measuring point of a 0.1% crystal violet solution (pH 3.0). After three washing cycles of the stained cells with water, the plates were dried at room temperature. The dye was dissolved by adding 100 microL/measuring point of a 10% acetic acid solution. The extinction was determined by photometry at a wavelength of 595 nm. The change of cell number, in percent, was calculated by normalization of the measured values to the extinction values of the zero-point plate (=0%) and the extinction of the untreated (0 μM) cells (=100%). The IC50 values (inhibitory concentration at 50% of maximal effect) were determined by means of a 4 parameter fit.

Assay [3] relates to CAL-120, human breast adenocarcinoma cells. The assay is described as follows: Proliferation assay CAL-120 (crystal violet). The class given is cell-based. To be noted: 96 h, CAL-120 parental cells, 4 days, median, read-out: Prolif-CAL-120, IC50 - [mol/l] (median). Here is the method:
as §1

For the next assay, the target named is CDK12 (Homo sapiens (Human), UniProt Q9NYV4). The experiment in a line: CDK12 nuclear protein level: immunofluorescence/high content analysis in CAL-120 cells. The class given is cell-based. The following applies: 24 h, nuclear CDK12 staining intensity, median, read-out: CDK12 degradation IF, DC50 - [mol/l] (median). Here is the method:
In the context of the present invention, the term “DC50 CDK12” refers to the DC50 values obtained according to the assay described in this section (7) herein below, i.e. the DC50 values for the degradation of CDK12.
(§2) CAL-120 human breast cancer cells (DSMZ ACC 459) are seeded in 1536-well microtiter plates (800 cells per well) containing 50 nanoL of compounds in Dose-Response. Control wells received DMSO or Example 4. Plates are then incubated for 24 h at 37° C. in an humidified incubator and fixed with 4% PFA for 10 min. Then immunofluorescence (IF) against CDK12 (CellSignalling CDK12 Antibody #11973, rabbit, 1:100 dilution) is performed using standard IF protocols. Cells are then stained with Hoechst 33342 (Life Technologies, H-1399, 0.1 microg/ml) and imaged on an automated confocal microscopy system (e.g. Perkin Elmer Opera Phenix). Nuclear and cytoplasmic intensity as well as the nuclear/cytoplasmic intensity ratio is determined by automated image analysis using custom generated scripts (MetaXpress). Data is then transferred to Genedata Screener software, normalized to DMSO and control and DC50 values (degrading concentration to achieve 50% reduction of nuclear CDK12 staining intensity relative to controls) are reported.

Another assay has as its system MDA-MB-231-CDK12d-res. The assay is described as follows: Proliferation assay CDK12 degrader resistant MDA-MB-231. The class given is cell-based, human.
Text: (§3) CDK12-degrader resistant cells were generated by propagation of CAL-120 human breast adenocarcinoma cells (DSMZ ACC-459) and MDA-MB-231 human breast cancer cells (ATCC HTB-26) in presence of increasing concentrations of the CDK12 degrader compound example 4 from WO 2021/116178. Initial concentrations of example 4 were 2.0E-08 M for CAL-120 cells and 4.6E-08 M for MDA-MB-231 cells, corresponding to ca. 2-fold the IC50 of inhibition of the cells in an proliferation assay. After the treated cells recovered and proliferated again the concentration of compound example 4 was increased to 3-fold IC50.
as §1, with “To determine the inhibitory effect of test compounds on proliferation of CAL-120-CDK12d-res, MDA-MB-231-CDK12d-res the” for “Human tumour”, “cells” for “cells were originally obtained from the American Type Culture Collection (ATCC), or from the Deutsche Sammlung von Mikroorganismen und Zellkulturen (DSMZ, German Collection of Microorganisms and Cell Cultures). Cultivated tumour cells (CAL-120, human breast adenocarcinoma cells, DSMZ ACC-459; MDA-MB-231, human breast cancer cells, ATCC HTB-26)”

In a further assay the test system is CAL-120-CDK12d-res. The assay is described as follows: Proliferation assay CDK12 degrader resistant CAL-120. The class given is cell-based, human.
Text: as §3
as §1, with “To determine the inhibitory effect of test compounds on proliferation of CAL-120-CDK12d-res, MDA-MB-231-CDK12d-res the” for “Human tumour”, “cells” for “cells were originally obtained from the American Type Culture Collection (ATCC), or from the Deutsche Sammlung von Mikroorganismen und Zellkulturen (DSMZ, German Collection of Microorganisms and Cell Cultures). Cultivated tumour cells (CAL-120, human breast adenocarcinoma cells, DSMZ ACC-459; MDA-MB-231, human breast cancer cells, ATCC HTB-26)”

In a further assay the test system is CYCLIN K. The experiment in a line: CYCLIN K nuclear protein level: immunofluorescence/high content analysis in CAL-120 cells. The class given is cell-based, human. To be noted: 24 h, nuclear CCNK staining intensity, median, read-out: CYCLIN K degradation IF, DC50 - [mol/l] (median). The protocol: as §2, with “CYCLIN K (ThermoFisher Scientific CCNK” for “CDK12 (CellSignalling CDK12”, “#PA5-85020,” for “#11973,”, “1:200” for “1:100”, “CCNK” for “CDK12”

pIC50: −log10 of the molar value.

Chain of CDK12 (Q9NYV4 whole entry): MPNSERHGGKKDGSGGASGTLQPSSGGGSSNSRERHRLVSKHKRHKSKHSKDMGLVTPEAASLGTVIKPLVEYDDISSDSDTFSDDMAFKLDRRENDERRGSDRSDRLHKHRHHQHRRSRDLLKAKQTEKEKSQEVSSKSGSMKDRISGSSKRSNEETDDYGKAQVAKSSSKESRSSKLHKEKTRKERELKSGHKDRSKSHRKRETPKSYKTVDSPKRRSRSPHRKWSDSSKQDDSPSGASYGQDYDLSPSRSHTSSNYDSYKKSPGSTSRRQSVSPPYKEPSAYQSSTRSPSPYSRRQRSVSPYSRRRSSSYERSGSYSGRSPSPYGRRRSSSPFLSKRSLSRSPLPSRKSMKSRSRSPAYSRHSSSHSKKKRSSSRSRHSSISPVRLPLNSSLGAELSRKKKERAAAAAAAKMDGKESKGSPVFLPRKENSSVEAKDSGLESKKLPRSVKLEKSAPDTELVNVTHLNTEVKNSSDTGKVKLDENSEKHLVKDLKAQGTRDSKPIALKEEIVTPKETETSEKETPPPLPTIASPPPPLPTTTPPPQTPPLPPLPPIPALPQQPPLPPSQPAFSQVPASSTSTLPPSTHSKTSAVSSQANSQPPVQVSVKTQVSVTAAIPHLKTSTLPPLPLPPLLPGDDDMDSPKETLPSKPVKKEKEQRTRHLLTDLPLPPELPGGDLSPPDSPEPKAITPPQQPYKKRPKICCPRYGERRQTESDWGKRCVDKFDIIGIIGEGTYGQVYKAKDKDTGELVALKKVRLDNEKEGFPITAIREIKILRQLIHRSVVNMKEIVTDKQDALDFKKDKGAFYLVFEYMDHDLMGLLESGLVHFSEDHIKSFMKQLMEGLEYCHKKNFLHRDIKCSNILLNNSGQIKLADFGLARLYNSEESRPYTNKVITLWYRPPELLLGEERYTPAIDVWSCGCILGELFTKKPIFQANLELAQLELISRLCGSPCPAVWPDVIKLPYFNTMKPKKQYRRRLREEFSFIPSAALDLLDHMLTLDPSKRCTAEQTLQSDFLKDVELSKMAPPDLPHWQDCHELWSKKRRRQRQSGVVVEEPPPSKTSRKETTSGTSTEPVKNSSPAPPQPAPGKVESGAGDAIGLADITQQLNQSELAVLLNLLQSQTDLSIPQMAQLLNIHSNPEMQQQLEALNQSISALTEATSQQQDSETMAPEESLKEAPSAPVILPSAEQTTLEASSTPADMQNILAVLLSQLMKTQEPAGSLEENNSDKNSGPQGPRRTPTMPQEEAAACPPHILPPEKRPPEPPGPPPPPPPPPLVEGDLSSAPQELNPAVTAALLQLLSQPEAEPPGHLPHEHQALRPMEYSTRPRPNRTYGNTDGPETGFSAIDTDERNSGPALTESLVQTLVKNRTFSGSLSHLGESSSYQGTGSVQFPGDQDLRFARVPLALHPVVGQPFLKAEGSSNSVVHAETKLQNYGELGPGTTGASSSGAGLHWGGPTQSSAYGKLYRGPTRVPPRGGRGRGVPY
Chain of CDK12 (O75909 whole entry partner): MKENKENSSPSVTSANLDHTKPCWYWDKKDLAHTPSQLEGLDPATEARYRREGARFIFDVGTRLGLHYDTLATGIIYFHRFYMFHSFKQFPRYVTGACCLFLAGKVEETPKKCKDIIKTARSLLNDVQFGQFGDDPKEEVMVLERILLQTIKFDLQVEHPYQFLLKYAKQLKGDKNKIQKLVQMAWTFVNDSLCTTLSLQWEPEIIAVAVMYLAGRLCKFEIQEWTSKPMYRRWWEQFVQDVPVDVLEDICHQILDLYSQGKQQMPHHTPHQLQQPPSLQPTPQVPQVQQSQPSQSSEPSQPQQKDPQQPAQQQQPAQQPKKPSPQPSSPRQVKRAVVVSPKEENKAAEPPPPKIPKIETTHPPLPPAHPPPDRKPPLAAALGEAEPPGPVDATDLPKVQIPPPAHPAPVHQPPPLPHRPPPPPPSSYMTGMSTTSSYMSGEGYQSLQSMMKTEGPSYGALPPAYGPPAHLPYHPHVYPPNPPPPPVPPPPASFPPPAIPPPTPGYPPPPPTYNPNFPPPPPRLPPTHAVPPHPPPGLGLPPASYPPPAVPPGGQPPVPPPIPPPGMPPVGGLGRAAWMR

`COc1ccc(-c2cnc(CNc3nc(N4CCOCC4)nn4c(C(F)(F)F)cnc34)[nH]2)cc1` [Example 13, N-{[5-(4-methoxyphenyl)-1H-imidazol-2-yl]methyl}-2-(morpholin-4-yl)-7-(trifluoromethyl)imidazo[2,1-f][1,2,4]triazin-4-amine]: the results for the pIC50 in assay [1], in assay [2] and in assay [3] were 7.24, 7.07 and 7.53, respectively. On CDK12, the DC50 was 120 nM.

As to `FC(F)(F)c1ccc(-c2nnc(CNc3nc(N4CCOCC4)nc4c(C(F)(F)F)cnn34)[nH]2)cn1` [Example 16, 2-(morpholin-4-yl)-8-(trifluoromethyl)-N-({5-[6-(trifluoromethyl)pyridin-3-yl]-4H-1,2,4-triazol-3-yl}methyl)pyrazolo[1,5-a][1,3,5]triazin-4-amine], the pIC50 in assay [2] was 6.75; in assay [3] it was 6.68. In addition, the DC50 on CDK12 is over 1000 nM.

In the case of `FC(F)(F)Oc1ccc(-c2nnc(CNc3nc(N4CCOCC4)nc4c(C(F)(F)F)cnn34)[nH]2)cn1` [Example 17, 2-(morpholin-4-yl)-N-({5-[6-(trifluoromethoxy)pyridin-3-yl]-4H-1,2,4-triazol-3-yl}methyl)-8-(trifluoromethyl)pyrazolo[1,5-a][1,3,5]triazin-4-amine], the pIC50 is 6.95 in assay [2]; 7.06 in assay [3]; 6.81 in the assay on MDA-MB-231-CDK12d-res (Homo sapiens, 96 h, CDK12 degrader resistant MDA-MB-231 cells, 4 days, median, read-out: Prolif-MDA MB-231-CDK12d-res, IC50 - [mol/] (median)); 6.87 with CAL-120-CDK12d-res (Homo sapiens, 96 h, CDK12 degrader resistant CAL-120 cells, 4 days, median, read-out: Prolif-CAL-120-CDK12d-res, IC50 - [mol/l] (median)). Besides, the “Ratio (Prolif-MDA MB-231-CDK12d-res IC50 / Prolif-MDA MB-231 IC50)” value with MDA-MB-231-CDK12d-res (resistant versus parental MDA-MB-231 cells) was 1.4. The “Ratio (Prolif-CAL-120-CDK12d-res IC50 / Prolif-CAL-120 IC50)” value in the assay on CAL-120-CDK12d-res (resistant versus parental CAL-120 cells) amounted to 1.5. In addition, the DC50 on CDK12 and with CYCLIN K was over 1000 nM in each case.

Values taken from US20250066370A1, “BICYCLIC TRIAZINE DERIVATIVES FOR THE TREATMENT OF CANCER” (DEUTSCHES KREBSFORSCHUNGSZENTRUM, priority 2022, published 2025).
